Measured values taken from US9169252B2 (BRISTOL-MYERS SQUIBB COMPANY, priority 2014, dated 2015).
pEC50, pIC50: −log10 of the molar value. Structures can show the parent of a compound that is named as a salt. Where two headings read alike, the source gives them in different places.

What was measured:
[1] = system: TLR2 induced IL-6 in peripheral blood mononuclear cells (PBMCs); assay: PBMC TLR2 Induced IL-6 Assay; format: cell-based, human; conditions: IL-6 by ELISA; for pEC50: read-out: Cell EC50; for pIC50: read-out: Cell IC50
Procedure, shortened: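 Lipoteichoic acid at 10 µg/ml served as TLR2 stimulus for 5 hours, following a 30-minute compound pretreatment at 37° C. Cells were Ficoll-isolated human PBMCs, 250000 cells/well, cultured in RPMI plus 10% heat-inactivated FCS.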

IRAK4 = IRAK4 (Homo sapiens (Human), UniProt Q9NWZ3); assay: IRAK4 Inhibition Assay; format: biochemical; conditions: ATP 500 μM, read-out: IRAK4 IC50
Description: The assays were performed in U-bottom 384-well plates. […] The reaction was initiated by the combination of IRAK4 with substrates and test compounds. The reaction mixture was incubated at room temperature for 60 min. and terminated by adding 45 μL of 35 mM EDTA to each sample. The reaction mixture was analyzed on the Caliper LABCHIP® 3000 (Caliper, Hopkinton, Mass.) by electrophoretic separation of the fluorescent substrate and phosphorylated product.

[2] = Homo sapiens, PBMC, PBMC TLR2 Induced IL-6 Assay, lipoteichoic acid stimulation
[3] = Homo sapiens, PBMC, human PBMCs, lipoteichoic acid stimulated
[4] = PBMC TLR2 Induced IL-6 Assay, lipoteichoic acid stimulation

Chain of IRAK4 (Q9NWZ3 whole entry, species assumed): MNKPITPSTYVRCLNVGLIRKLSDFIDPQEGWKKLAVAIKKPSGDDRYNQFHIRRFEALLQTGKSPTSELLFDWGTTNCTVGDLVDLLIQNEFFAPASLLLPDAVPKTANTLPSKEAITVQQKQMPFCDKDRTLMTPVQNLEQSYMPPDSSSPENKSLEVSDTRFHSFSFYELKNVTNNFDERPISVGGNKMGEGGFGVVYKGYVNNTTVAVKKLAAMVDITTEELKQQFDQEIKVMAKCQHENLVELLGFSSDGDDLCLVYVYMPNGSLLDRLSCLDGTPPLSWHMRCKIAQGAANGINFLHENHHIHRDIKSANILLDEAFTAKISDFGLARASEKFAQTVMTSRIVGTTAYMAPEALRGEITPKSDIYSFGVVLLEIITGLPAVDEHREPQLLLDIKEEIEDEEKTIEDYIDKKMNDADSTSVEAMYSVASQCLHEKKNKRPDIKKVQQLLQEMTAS

## COC(=O)CCNC(=O)c1cnc(-n2ncc3cc(C#N)cnc32)cc1NC(C)C [Example 207]
[1]; [2]
  pEC50: 6.64
IRAK4; IRAK4 Inhibition Assay
  pIC50: 7.99

## CS(=O)(=O)NCCNC(=O)c1cnc(-n2ccc3cc(C#N)cnc32)cc1NC1CCOCC1 [Example 479]
[1]; [3]
  pEC50: 6.84
  pIC50: 6.08
IRAK4; IRAK4 0.6 nM
  pIC50: 8.24

## CC(C)Nc1cc(-n2ccc3cc(C#N)cnc32)ncc1C(=O)NCCCOC(C)C [Example 47, 6-(5-cyano-1H-pyrrolo[2,3-b]pyridin-1-yl)-N-(3-isopropoxypropyl)-4-(isopropylamino) nicotinamide]
[1]; [2]
  pEC50: 6.76
IRAK4; IRAK4 Inhibition Assay
  pIC50: 8.25

## CC(C)(O)[C@H](F)CNC(=O)c1cnc(-n2ncc3cc(C#N)cnc32)cc1N[C@H]1CC[C@@](C)(O)CC1 [Example 607]
[1]; [3]
  pEC50: 6.48
IRAK4; IRAK4 0.6 nM
  pIC50: 8.40

## CC(C)Nc1cc(-n2ncc3cc(C#N)cnc32)ncc1C(=O)Nc1cc2cc[nH]c2cn1 [Example 223]
[1]; [2]
  pIC50: 6.75
IRAK4; IRAK4 Inhibition Assay
  pIC50: 8.40

## CC(C)Nc1cc(-n2ncc3cc(C#N)cnc32)ncc1C(=O)NC[C@@H](F)C(C)(C)O [Example 192, (R)-6-(5-Cyano-1H-pyrazolo[3,4-b]pyridin-1-yl)-N-(2-fluoro-3-hydroxy-3-methylbutyl)-4-(isopropylamino)nicotinamide, hydrochloride]
[1]; PBMC TLR2 Induced IL-6 Assay, lipoteichoic acid stimulation, hydrochloride
  pEC50: 6.92
IRAK4; IRAK4 Inhibition Assay, hydrochloride
  pIC50: 8.59

## CC(C)Nc1cc(-n2ncc3cc(C#N)cnc32)ncc1C(=O)Nc1ccc(C(C)(C)O)cn1 [Example 236]
[1]; [2]
  pEC50: 6.49
IRAK4; IRAK4 Inhibition Assay
  pIC50: 7.94

## CC(C)(O)[C@H](F)CNC(=O)c1cnc(-n2ccc3cc(C#N)cnc32)cc1N[C@@H]1CCNC1 [Example 466]
[1]; [3]
  pEC50: 6.10
  pIC50: 6.89
IRAK4; IRAK4 0.6 nM
  pIC50: 7.86

## CC(C)Nc1cc(-n2ccc(-c3ccnnc3)n2)ncc1C(=O)NC[C@@H](F)C(C)(C)O [Example 168, (R)—N-(2-Fluoro-3-hydroxy-3-methylbutyl)-4-(isopropylamino)-6-(3-(pyridazin-4-yl)-1H-pyrazol-1-yl)nicotinamide]
[1]; [2]
  pEC50: 6.52
IRAK4; IRAK4 Inhibition Assay
  pIC50: 7.88

## CCNC(=O)CCNC(=O)c1cnc(-n2ncc3cc(C#N)cnc32)cc1NC(C)C [Example 212]
[1]; [2]
  pEC50: 6.72
IRAK4; IRAK4 Inhibition Assay
  pIC50: 7.91

## CC(C)Nc1cc(-n2ccc3cc(C#N)cnc32)ncc1C(=O)N[C@H]1CC[C@](C)(O)CC1 [Example 99, 6-(5-cyano-1H-pyrrolo[2,3-b]pyridin-1-yl)-N-((trans)-4-hydroxy-4-methylcyclohexyl)-4-(isopropylamino)nicotinamide]
[1]; [2]
  pEC50: 6.65
IRAK4; IRAK4 Inhibition Assay
  pIC50: 8.34

## CC(C)Nc1cc(-n2ccc3cc(C#N)cnc32)ncc1C(=O)NCCCOC(C)(C)C [Example 417]
[1]; [3]
  pEC50: 6.77
IRAK4; IRAK4 0.6 nM
  pIC50: 8.26

## CC(C)Nc1cc(-n2ncc3cc(C#N)cnc32)ncc1C(=O)NCCC1(O)CCNC1 (stereo not drawn) [Example 255]
[1]; [2]
  pEC50: 6.48
IRAK4; IRAK4 Inhibition Assay
  pIC50: 8.12

## CC(C)(F)[C@H](F)CNC(=O)c1cnc(-n2cnc3cc(C#N)cnc32)cc1Nc1cnn(CC(F)F)c1 [Example 403]
[1]; [3]
  pIC50: 6.83
IRAK4; IRAK4 0.6 nM
  pIC50: 8.60

## CC[C@@H](CO)Nc1cc(-n2ncc3cc(Cl)cnc32)ncc1C(=O)NC[C@@H](F)C(C)(C)O [Example 589]
[1]; [3]
  pIC50: 6.44
IRAK4; IRAK4 0.6 nM
  pIC50: 8.39

## CC(C)(O)[C@H](F)CNC(=O)c1cnc(-n2ccc3cc(C#N)cnc32)cc1NC1CCCC1 [Example 10, (R)-6-(5-cyano-1H-pyrrolo[2,3-b]pyridin-1-yl)-4-(cyclopentylamino)-N-(2-fluoro-3-hydroxy-3-methylbutyl)nicotinamide]
[1]; [2]
  pEC50: 7.20
  pIC50: 7.10
IRAK4; IRAK4 Inhibition Assay
  pIC50: 8.74

## CC(C)(O)[C@H](F)CNC(=O)c1cnc(-n2ncc3cc(C#N)cnc32)cc1NC1CC1 [Example 336]
[1]; [2]
  pIC50: 6.25
[1]; [4]
  pEC50: 6.77
IRAK4; IRAK4 Inhibition Assay
  pIC50: 8.42

## CC(C)(O)[C@H](F)CNC(=O)c1cnc(-n2ccc3cc(C#N)cnc32)cc1Nc1ccc2ncsc2c1 [Example 64, (R)-4-(benzo[d]thiazol-6-ylamino)-6-(5-cyano-1H-pyrrolo[2,3-b]pyridin-1-yl)-N-(2-fluoro-3-hydroxy-3-methylbutyl)nicotinamide]
[1]; [2]
  pEC50: 7.03
IRAK4; IRAK4 Inhibition Assay
  pIC50: 8.77

## CNC(=O)[C@H]1CC[C@H](NC(=O)c2cnc(-n3ccc4cc(C#N)ccc43)cc2NC(C)C)CC1 [Example 79, 6-(5-Cyano-1H-indol-1-yl)-4-(isopropylamino)-N-((trans)-4-(methylcarbamoyl)cyclohexyl)nicotinamide]
[1]; [2]
  pEC50: 6.36
  pIC50: 6.36
IRAK4; IRAK4 Inhibition Assay
  pIC50: 7.94

## CC(C)(O)[C@H](F)CNC(=O)c1cnc(-n2cnc3cc(Cl)cnc32)cc1Nc1cnn(CCC#N)c1 [Example 374]
[1]; [2]
  pIC50: 7.07
IRAK4; IRAK4 Inhibition Assay
  pIC50: 8.48

## CCNc1cc(-n2ncc3cc(C#N)cnc32)ncc1C(=O)NC[C@@H](F)C(C)(C)O [Example 138, (R)-6-(5-cyano-1H-pyrazolo[3,4-b]pyridin-1-yl)-4-(ethylamino)-N-(2-fluoro-3-hydroxy-3-methylbutyl)nicotinamide]
[1]; [2]
  pEC50: 6.82
IRAK4; IRAK4 Inhibition Assay
  pIC50: 8.19

## CC(C)Nc1cc(-n2ncc3cc(C#N)cnc32)ncc1C(=O)NCC(=O)N1CCOCC1 [Example 206]
[1]; [2]
  pEC50: 7.07
IRAK4; IRAK4 Inhibition Assay
  pIC50: 7.84

## CC(C)(O)[C@H](F)CNC(=O)c1cnc(-n2ncc3cc(C#N)cnc32)cc1Nc1ccc2ncsc2c1 [Example 524]
[1]; [3]
  pEC50: 6.88
IRAK4; IRAK4 0.6 nM
  pIC50: 8.59

## CC(C)(O)[C@H](F)CNC(=O)c1cnc(-n2ncc3cc(C#N)cnc32)cc1Nc1cnn(CC(F)F)c1 [Example 347, (R)-6-(5-Cyano-1H-pyrazolo[3,4-b]pyridin-1-yl)-4-((1-(2,2-difluoroethyl)-1H-pyrazol-4-yl)amino)-N-(2-fluoro-3-hydroxy-3-methylbutyl)nicotinamide]
[1]; [2]
  pIC50: 6.84
IRAK4; IRAK4 Inhibition Assay
  pIC50: 8.89

## CC(C)(O)[C@H](F)CNC(=O)c1cnc(-n2ccc3cc(C#N)cnc32)cc1Nc1ccc2ncoc2c1 [Example 421]
[1]; [3]
  pIC50: 6.78
IRAK4; IRAK4 0.6 nM
  pIC50: 8.72

## C[C@H](CF)Nc1cc(-n2ccc3cc(C#N)cnc32)ncc1C(=O)NC[C@@H](F)C(C)(C)O [Example 118, 6-(5-cyano-1H-pyrrolo[2,3-b]pyridin-1-yl)-N—((R)-2-fluoro-3-hydroxy-3-methylbutyl)-4-(((R)-1-fluoropropan-2-yl)amino)nicotinamide]
[1]; [2]
  pEC50: 7.74
IRAK4; IRAK4 Inhibition Assay
  pIC50: 8.74

## CC(C)(F)[C@H](F)CNC(=O)c1cnc(-n2ncc3cc(C#N)cnc32)cc1Nc1cnn(CC(F)F)c1 [Example 395]
[1]; [3]
  pIC50: 7.07
IRAK4; IRAK4 0.6 nM
  pIC50: 8.66

## CC(C)Nc1cc(-n2ccc3cc(C#N)cnc32)ncc1C(=O)NCC(F)C1(O)COC1 (stereo not drawn) [Example 494]
[1]; [3]
  pIC50: 6.54
IRAK4; IRAK4 0.6 nM
  pIC50: 8.52

## CC(C)Nc1cc(-n2ncc3cc(C#N)cnc32)ncc1C(=O)NCCC1(O)CC1 [Example 331]
[1]; [2]
  pIC50: 7.24
IRAK4; IRAK4 Inhibition Assay
  pIC50: 8.21

## CC(C)(O)[C@H](F)CNC(=O)c1cnc(-n2ncc3cc(C#N)cnc32)cc1NCC(F)F [Example 574]
[1]; [3]
  pIC50: 6.59
IRAK4; IRAK4 0.6 nM
  pIC50: 7.82

## CC(C)Nc1cc(-n2ncc3cnc(N)nc32)ncc1C(=O)NC[C@@H](F)C(C)(C)O [Example 579]
[1]; [3]
  pIC50: 6.57
IRAK4; IRAK4 0.6 nM
  pIC50: 8.41

## CC(C)Nc1cc(-n2cnc3cnc(N)nc32)ncc1C(=O)NC[C@@H](F)C(C)(C)O [Example 171, (R)-6-(2-Amino-9H-purin-9-yl)-N-(2-fluoro-3-hydroxy-3-methylbutyl)-4-(isopropylamino)nicotinamide]
[1]; [2]
  pEC50: 6.68
  pIC50: 6.23
IRAK4; IRAK4 Inhibition Assay
  pIC50: 8.43

## CC(C)(O)[C@H](F)CNC(=O)c1cnc(-n2ccc3cc(C#N)cnc32)cc1N[C@@H]1CCN(c2ncc(F)cn2)C1 [Example 449]
[1]; [3]
  pEC50: 7.09
  pIC50: 7.23
IRAK4; IRAK4 0.6 nM
  pIC50: 8.82

## CC(C)Nc1cc(-n2ncc3cc(C#N)cnc32)ncc1C(=O)NC[C@@H](F)C(C)(C)F [Example 308]
[1]; [2]
  pIC50: 7.14
IRAK4; IRAK4 Inhibition Assay
  pIC50: 8.52

## CC(C)Nc1cc(-n2ncc3cc(C#N)cnc32)ncc1C(=O)NCCC(C)NS(C)(=O)=O (stereo not drawn) [Example 265]
[1]; [4]
  pIC50: 6.62
IRAK4; IRAK4 Inhibition Assay
  pIC50: 8.62

## CC1(Nc2cc(-n3cnc4cc(C#N)cnc43)ncc2C(=O)NC[C@@H](F)C(C)(C)O)CC1 [Example 343]
[1]; [2]
  pIC50: 6.37
IRAK4; IRAK4 Inhibition Assay
  pIC50: 8.46

## CC(C)(F)[C@H](F)CNC(=O)c1cnc(-n2cnc3cc(C#N)cnc32)cc1NC1COC1 [Example 344]
[1]; [2]
  pIC50: 6.84
IRAK4; IRAK4 Inhibition Assay
  pIC50: 7.87

## CC(C)(O)[C@H](F)CNC(=O)c1cnc(-n2ncc3cc(C#N)cnc32)cc1N[C@H]1CC[C@](C)(O)CC1 [Example 608]
[1]; [3]
  pEC50: 6.50
IRAK4; IRAK4 0.6 nM
  pIC50: 7.90

## CC(C)Nc1cc(-n2ncc3cc(C#N)cnc32)ncc1C(=O)N[C@H]1CCCN(S(C)(=O)=O)C1 [Example 246]
[1]; [2]
  pEC50: 6.45
IRAK4; IRAK4 Inhibition Assay
  pIC50: 7.70

## CC(C)Nc1cc(-n2cnc3cc(C#N)c(N)nc32)ncc1C(=O)NC[C@@H](F)C(C)(C)O [Example 341]
[1]; [2]
  pEC50: 6.79
IRAK4; IRAK4 Inhibition Assay
  pIC50: 8.72

## CC(C)Nc1cc(-n2ncc3cc(C(F)F)cnc32)ncc1C(=O)NC[C@@H](F)C(C)(C)O [Example 231]
[1]; [2]
  pEC50: 6.63
  pIC50: 6.26
IRAK4; IRAK4 Inhibition Assay
  pIC50: 7.85
